From paper PMC5738391, “Three classes of ligands each bind to distinct sites on the orphan G protein-coupled receptor GPR84” (Scientific Reports, 2017)

What was measured:
[1] = target: GPR84-Cys^352Ile Gαi2 fusion protein (Homo sapiens, UniProt Q9NQS5); assay: [3H]G9543 radioligand binding (saturation and displacement), GPR84-Cys352Ile Gαi2 fusion protein; design: Cys352Ile Gαi2 (fusion partner, same polypeptide); expressed in transfected cells; host or cells: membranes of Flp-In T-REx 293 cells, doxycycline-induced; conditions: displacement assay
Method: [^3H]G9543 is an analog of compounds 104, 107 and 161 with the same characteristic 2-(substituted-alkoxy)-9-substituted-6,7-dihydro-pyrimido[6,1-a]isoquinolin-4-one chemotype. […] Binding was initiated by the addition of membranes (5 µg of protein per tube). All assays were performed at 25 °C for 1 h before termination by the addition of ice-cold phosphate-buffered saline and vacuum filtration through GF/C glass filters using a 24-well Brandel cell harvester (Alpha Biotech, Glasgow, UK). Each reaction tube was washed three times with ice-cold PBS. The filters were allowed to dry for 2–3 h and then placed in 3 ml of Ultima Gold^TM XR. Radioactivity was quantified by liquid scintillation spectrometry. Specific binding was defined as the difference between binding detected in the presence and absence of 1 µM compound 104.
(§1) All data are presented as means ± SEM of at least three independent experiments. Data analysis and curve fitting was carried out using the GraphPad Prism software package version 5.0b (GraphPad, San Diego). For functional assays the concentration-response data were plotted on a log axis, with the untreated vehicle control plotted at 1 log unit lower than the lowest ligand concentration, and fitted to a three parameter sigmoidal curve with the Hill slope constrained to equal 1. In case of inhibition experiments with antagonists an equivalent analysis was followed to fit an inverse sigmoidal curve. To perform the statistical analysis of curve parameters, data from multiple experiments were fitted independently and resulting curve fit values were analysed with indicated tests. For radioligand binding data, saturation binding curves were generated by fitting the specific binding, which was obtained by subtracting non-specific from total binding, to a one site specific binding model that allows calculation of Kd values for the radioligand at wild type and mutant receptors. To determine affinity of unlabelled ligands, data obtained in displacement assays were fit to an inverse three parameter sigmoidal curve constrained by radioligand affinity and concentration to allow for Ki calculation.

[2] = target: T1, human GPR84 (FLAG-hGPR84-eYFP) (Homo sapiens, UniProt Q9NQS5); assay: [35S]GTPγS binding, membranes of cells expressing FLAG-hGPR84-eYFP; format: biochemical
T1 construct: expressed in transfected cells
Method: Membranes were generated from Flp-In T-REx HEK293 cells treated with 100 ng/mL doxycycline to induce expression of the receptor construct of interest. Cells were washed with ice-cold phosphate-buffered saline, removed from dishes by scraping and centrifuged at 3000 rpm for 5 min at 4 °C. Pellets were resuspended in TE buffer (10 mM Tris-HCl, 0.1 mM EDTA; pH 7.5) containing a protease inhibitor mixture (Roche Applied Science, West Sussex, UK) and homogenized with a 5 ml hand-held homogenizer. This material was centrifuged at 1500 rpm for 5 min at 4 °C and the supernatant was further centrifuged at 50000 rpm for 45 min at 4 °C. The resulting pellet was resuspended in TE buffer and protein content was assessed using a BCA protein assay kit (Pierce, Fisher Scientific, Loughborough, UK).
The reaction was then initiated with addition of [^35S]GTPγS (50 nCi per tube), and the reaction was terminated after 45 minutes incubation at 30 °C by rapid filtration through GF/C glass filters using a 24-well Brandel cell harvester (Alpha Biotech, Glasgow, UK). […] Dried filters were added to 3 mL of Ultima Gold^TM XR (PerkinElmer Life Sciences, Beaconsfield, UK) and [^35S]GTPγS binding was determined by liquid scintillation spectrometry.
as §1, with “For functional assays the concentration-response data were plotted on a log axis, with the untreated vehicle control plotted at 1 log unit lower than the lowest ligand concentration, and fitted to a three parameter sigmoidal curve with the Hill slope constrained to equal 1.” left out

wild type GPR84 = tested on: wild type GPR84; design: method as in PMID 25425658; conditions: cited from earlier work
[3] = tested on: patients with ulcerative colitis; design: method as in doi:10.1093/ecco-jcc/jjx002.734; conditions: cited from earlier work

Chain of GPR84-Cys^352Ile Gαi2 fusion protein (Q9NQS5 2-396): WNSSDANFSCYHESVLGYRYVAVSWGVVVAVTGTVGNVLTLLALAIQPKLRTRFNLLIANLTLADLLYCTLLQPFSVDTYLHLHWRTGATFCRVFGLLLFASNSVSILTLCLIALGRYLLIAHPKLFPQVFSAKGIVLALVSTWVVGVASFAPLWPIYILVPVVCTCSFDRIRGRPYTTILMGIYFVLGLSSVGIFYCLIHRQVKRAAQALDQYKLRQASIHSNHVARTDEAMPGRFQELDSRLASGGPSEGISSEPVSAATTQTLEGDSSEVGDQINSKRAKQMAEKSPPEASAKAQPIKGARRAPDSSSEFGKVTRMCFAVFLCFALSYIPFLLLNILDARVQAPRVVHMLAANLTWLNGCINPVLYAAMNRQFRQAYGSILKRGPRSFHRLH
T1 sequence (Q9NQS5 whole entry): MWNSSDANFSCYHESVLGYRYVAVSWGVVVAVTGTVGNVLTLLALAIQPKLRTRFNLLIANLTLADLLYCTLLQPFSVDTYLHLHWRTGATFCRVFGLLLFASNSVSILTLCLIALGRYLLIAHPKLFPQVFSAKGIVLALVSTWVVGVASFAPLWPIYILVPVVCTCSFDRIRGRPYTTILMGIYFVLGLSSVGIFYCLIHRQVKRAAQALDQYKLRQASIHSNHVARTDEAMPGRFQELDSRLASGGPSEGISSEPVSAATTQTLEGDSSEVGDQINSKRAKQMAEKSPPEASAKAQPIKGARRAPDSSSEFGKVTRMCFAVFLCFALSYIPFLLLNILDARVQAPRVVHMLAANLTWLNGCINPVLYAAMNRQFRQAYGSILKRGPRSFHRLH

Structure (SMILES): O=c1nc(OC[C@H]2COCCO2)cc2n1CCc1cc(OCc3noc(C4CC4)n3)ccc1-2 [Compound 104, 9-(5-cyclopropyl-[1,2,4]oxadiazol-3-ylmethoxy)-2-((R)-1-[1,4]dioxan-2-ylmethoxy)-6,7-dihydro-pyrimido[6,1-a]isoquinolin-4-one]
- ability to compete with [3H]G9543 binding [1]: competed fully and effectively
- Ki ([1]; read-out: pKi, competition with [3H]G9543 (converted)): 1.86 nM
- ability to limit [35S]GTPγS binding induced by EC80 concentrations of C10 (50 μM), embelin (3 μM) and DIM (5 μM) [2]: more potent than 161

Structure (SMILES): CCCCCCCCCCN [decylamine]
- response of wild type GPR84 (wild type GPR84): failed to respond

Structure (SMILES): O=c1nc(OC[C@@H]2COCCO2)cc2n1CCc1cc(C#CC3CC3)ccc1-2 [GLPG1205]
- efficacy in patients with ulcerative colitis ([3]; 12 weeks of chronic dosing): did not show efficacy
- safety and tolerability ([3]; patients with ulcerative colitis): safe and tolerable
